Results reported in article PMC8429728, “TNK1 is a ubiquitin-binding and 14-3-3-regulated kinase that can be targeted to block tumor growth” (Nature Communications, 2021).
Where two headings read alike, the source gives them in different places.

How the values were obtained:
Assay in all cases: biochemical
Set-up in all cases: Reaction Biology 371-kinase panel at Km ATP, per cent enzyme activity relative to DMSO, single dose in duplicate
Details in all cases: duplicate measurements, Km ATP
AKT3 = AKT3 (Homo sapiens, UniProt Q9Y243)
Method in brief: (§1)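 Compound screened at 300 nM in vitro across a 371-kinase panel. Enzyme activity expressed as % of DMSO controls. IC50 values came from sigmoidal variable-slope dose-response fits with the bottom fixed at 0.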

CAMKK2 = CAMKK2 (Homo sapiens, UniProt Q96RR4)
Method in brief: as §1

CDC7/DBF4 = CDC7/DBF4 (Homo sapiens, UniProt O00311)
Method in brief: as §1

FRK/PTK5 = FRK/PTK5 (Homo sapiens, UniProt P42685)
Method in brief: as §1

GRK2 = GRK2 (Homo sapiens, UniProt P25098)
Method in brief: as §1

HIPK2 = HIPK2 (Homo sapiens, UniProt Q9H2X6)
Method in brief: as §1

MAPKAPK2 = MAPKAPK2 (Homo sapiens, UniProt P49137)
Method in brief: as §1

MARK3 = MARK3 (Homo sapiens, UniProt P27448)
Method in brief: as §1

MNK2 = molecular target: T1, MNK2 (Homo sapiens, UniProt Q9HBH9)
T1 construct: gene MKNK2
Method in brief: as §1

MRCKb/CDC42BPB = MRCKb/CDC42BPB (Homo sapiens, UniProt Q9Y5S2)
Method in brief: as §1

MYLK4 = MYLK4 (Homo sapiens, UniProt Q86YV6)
Method in brief: as §1

PIM1 = PIM1 (Homo sapiens, UniProt P11309)
Method in brief: as §1

PKN1/PRK1 = PKN1/PRK1 (Homo sapiens, UniProt Q16512)
Method in brief: as §1

PRKX = PRKX (Homo sapiens, UniProt P51817)
Method in brief: as §1

RET = RET (Homo sapiens, UniProt P07949)
Method in brief: as §1

STK16 = STK16 (Homo sapiens, UniProt O75716)
Method in brief: as §1

STK32B/YANK2 = STK32B/YANK2 (Homo sapiens, UniProt Q9NY57)
Method in brief: as §1

TAOK1 = TAOK1 (Homo sapiens, UniProt Q7L7X3)
Method in brief: as §1

TTBK2 = TTBK2 (Homo sapiens, UniProt Q6IQ55)
Method in brief: as §1

c-MET = c-MET (Homo sapiens, UniProt P08581)
Method in brief: as §1

[1] = read-out: % Enzyme Activity (relative to DMSO controls) / TP-0005801 (0.3µM) / Data 1
[2] = read-out: % Enzyme Activity (relative to DMSO controls) / TP-0005801 (0.3µM) / Data 2

T1 sequence (Q9HBH9 whole entry): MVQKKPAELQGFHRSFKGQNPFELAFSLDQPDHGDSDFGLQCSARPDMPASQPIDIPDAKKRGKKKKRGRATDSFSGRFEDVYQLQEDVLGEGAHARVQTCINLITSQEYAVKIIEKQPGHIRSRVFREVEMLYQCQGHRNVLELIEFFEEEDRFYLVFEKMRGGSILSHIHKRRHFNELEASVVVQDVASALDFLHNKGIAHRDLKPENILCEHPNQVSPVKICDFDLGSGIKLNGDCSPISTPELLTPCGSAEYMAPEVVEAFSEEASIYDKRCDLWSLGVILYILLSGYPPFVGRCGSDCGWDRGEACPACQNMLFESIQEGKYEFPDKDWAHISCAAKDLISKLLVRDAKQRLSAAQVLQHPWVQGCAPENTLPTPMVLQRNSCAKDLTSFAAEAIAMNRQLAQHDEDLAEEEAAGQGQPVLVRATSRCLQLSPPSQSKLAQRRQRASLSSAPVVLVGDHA
Sequence of STK16 (O75716 whole entry): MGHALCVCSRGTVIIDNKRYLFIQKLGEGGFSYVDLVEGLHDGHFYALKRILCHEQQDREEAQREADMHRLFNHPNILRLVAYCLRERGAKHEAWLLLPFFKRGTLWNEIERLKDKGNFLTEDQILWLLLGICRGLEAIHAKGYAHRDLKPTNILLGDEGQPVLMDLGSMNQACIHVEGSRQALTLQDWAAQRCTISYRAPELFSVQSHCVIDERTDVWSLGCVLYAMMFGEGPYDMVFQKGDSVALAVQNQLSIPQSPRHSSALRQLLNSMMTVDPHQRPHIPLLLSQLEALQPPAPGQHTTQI
Sequence of PKN1/PRK1 (Q16512 whole entry): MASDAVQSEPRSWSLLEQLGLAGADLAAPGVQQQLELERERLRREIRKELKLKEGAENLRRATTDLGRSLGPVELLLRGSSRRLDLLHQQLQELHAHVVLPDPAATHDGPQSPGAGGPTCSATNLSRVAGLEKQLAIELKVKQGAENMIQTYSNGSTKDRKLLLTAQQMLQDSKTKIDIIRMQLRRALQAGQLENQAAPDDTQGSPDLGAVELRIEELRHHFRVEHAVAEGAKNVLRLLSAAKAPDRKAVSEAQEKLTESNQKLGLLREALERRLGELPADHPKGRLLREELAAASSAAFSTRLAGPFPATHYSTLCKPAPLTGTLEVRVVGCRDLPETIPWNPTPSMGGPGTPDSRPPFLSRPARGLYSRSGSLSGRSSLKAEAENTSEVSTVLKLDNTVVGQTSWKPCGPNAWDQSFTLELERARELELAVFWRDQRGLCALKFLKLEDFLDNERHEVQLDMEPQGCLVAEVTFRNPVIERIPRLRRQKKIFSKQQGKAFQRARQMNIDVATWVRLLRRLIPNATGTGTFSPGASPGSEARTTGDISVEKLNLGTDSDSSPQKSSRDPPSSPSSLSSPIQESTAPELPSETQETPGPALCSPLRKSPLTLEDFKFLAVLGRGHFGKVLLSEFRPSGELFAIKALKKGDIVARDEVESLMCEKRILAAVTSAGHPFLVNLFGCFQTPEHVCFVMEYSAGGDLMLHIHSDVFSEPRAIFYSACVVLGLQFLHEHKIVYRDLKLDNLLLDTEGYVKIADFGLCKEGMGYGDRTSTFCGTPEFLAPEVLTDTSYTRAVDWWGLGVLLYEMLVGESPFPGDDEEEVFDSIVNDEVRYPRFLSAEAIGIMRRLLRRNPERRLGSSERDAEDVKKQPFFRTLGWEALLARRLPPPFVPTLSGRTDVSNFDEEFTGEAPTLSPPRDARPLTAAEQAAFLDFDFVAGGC
Sequence of PIM1 (P11309 whole entry): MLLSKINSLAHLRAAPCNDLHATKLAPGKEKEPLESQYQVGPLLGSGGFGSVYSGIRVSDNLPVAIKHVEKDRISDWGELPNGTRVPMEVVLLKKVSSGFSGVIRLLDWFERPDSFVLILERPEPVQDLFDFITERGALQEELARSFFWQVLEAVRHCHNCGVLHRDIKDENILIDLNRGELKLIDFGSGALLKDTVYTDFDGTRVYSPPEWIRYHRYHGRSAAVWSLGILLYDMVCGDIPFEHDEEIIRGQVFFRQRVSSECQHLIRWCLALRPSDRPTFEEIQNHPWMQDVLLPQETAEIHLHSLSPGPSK
Sequence of STK32B/YANK2 (Q9NY57 whole entry): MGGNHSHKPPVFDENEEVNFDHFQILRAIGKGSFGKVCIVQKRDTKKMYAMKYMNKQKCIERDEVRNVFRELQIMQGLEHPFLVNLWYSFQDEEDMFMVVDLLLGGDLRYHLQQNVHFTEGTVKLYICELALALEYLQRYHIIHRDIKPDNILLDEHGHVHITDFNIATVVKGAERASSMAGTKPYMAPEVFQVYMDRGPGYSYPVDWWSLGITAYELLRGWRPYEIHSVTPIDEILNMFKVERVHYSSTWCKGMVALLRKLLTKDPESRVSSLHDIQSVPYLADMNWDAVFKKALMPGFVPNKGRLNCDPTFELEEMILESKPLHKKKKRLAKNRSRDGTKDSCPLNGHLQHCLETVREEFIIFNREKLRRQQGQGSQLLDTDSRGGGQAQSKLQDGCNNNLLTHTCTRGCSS
Sequence of GRK2 (P25098 whole entry): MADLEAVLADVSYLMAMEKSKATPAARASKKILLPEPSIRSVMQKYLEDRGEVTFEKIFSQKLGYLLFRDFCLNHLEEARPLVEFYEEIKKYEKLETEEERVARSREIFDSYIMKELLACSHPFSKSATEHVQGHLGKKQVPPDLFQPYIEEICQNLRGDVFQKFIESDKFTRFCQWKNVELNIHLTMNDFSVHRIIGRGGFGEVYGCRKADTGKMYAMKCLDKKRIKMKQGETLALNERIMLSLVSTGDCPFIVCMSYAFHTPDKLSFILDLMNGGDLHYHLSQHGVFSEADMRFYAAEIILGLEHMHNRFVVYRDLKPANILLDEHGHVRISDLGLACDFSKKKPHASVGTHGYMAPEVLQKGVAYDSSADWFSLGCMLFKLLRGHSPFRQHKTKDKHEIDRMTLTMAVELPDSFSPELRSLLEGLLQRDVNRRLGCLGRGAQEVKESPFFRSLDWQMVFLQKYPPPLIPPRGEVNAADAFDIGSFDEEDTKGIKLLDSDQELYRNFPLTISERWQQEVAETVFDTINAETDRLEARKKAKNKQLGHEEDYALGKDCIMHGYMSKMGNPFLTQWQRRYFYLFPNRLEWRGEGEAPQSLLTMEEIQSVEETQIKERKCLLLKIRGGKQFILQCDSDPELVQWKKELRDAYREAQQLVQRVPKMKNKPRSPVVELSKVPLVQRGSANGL
Sequence of c-MET (P08581 whole entry): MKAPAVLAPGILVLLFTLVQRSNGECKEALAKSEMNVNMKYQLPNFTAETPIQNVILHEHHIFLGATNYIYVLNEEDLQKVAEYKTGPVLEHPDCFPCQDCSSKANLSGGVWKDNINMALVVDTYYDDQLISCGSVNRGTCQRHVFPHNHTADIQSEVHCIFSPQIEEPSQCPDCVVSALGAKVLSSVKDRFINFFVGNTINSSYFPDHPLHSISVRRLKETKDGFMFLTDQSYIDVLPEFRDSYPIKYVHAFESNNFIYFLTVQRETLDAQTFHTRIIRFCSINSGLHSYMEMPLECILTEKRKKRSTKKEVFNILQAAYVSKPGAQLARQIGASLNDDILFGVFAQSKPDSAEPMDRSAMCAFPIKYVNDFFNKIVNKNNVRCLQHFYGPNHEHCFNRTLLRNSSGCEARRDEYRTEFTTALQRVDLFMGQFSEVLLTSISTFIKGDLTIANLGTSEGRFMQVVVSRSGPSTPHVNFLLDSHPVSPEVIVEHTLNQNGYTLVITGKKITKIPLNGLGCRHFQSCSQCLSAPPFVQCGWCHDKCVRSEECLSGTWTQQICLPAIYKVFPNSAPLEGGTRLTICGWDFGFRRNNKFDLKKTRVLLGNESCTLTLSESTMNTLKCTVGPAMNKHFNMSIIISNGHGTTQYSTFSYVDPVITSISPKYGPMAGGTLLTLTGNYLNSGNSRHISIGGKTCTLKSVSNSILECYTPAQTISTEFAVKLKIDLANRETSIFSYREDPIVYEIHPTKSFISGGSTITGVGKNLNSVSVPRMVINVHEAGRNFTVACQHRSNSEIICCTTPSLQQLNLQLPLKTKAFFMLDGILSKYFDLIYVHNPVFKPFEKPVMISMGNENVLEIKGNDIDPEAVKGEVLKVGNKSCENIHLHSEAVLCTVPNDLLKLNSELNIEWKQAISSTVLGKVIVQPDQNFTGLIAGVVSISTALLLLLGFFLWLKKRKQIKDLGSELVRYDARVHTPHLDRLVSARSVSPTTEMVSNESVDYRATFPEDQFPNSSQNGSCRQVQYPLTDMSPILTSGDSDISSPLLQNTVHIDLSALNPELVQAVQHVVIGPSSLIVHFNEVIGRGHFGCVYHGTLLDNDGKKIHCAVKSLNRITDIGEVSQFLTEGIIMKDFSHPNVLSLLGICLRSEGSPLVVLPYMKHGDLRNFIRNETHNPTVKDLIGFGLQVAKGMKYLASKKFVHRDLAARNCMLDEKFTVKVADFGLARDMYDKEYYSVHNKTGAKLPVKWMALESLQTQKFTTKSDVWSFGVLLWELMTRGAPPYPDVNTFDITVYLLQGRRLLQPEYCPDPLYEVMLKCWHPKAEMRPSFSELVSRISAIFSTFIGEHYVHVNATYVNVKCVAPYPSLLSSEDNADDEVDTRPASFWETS
Sequence of FRK/PTK5 (P42685 whole entry): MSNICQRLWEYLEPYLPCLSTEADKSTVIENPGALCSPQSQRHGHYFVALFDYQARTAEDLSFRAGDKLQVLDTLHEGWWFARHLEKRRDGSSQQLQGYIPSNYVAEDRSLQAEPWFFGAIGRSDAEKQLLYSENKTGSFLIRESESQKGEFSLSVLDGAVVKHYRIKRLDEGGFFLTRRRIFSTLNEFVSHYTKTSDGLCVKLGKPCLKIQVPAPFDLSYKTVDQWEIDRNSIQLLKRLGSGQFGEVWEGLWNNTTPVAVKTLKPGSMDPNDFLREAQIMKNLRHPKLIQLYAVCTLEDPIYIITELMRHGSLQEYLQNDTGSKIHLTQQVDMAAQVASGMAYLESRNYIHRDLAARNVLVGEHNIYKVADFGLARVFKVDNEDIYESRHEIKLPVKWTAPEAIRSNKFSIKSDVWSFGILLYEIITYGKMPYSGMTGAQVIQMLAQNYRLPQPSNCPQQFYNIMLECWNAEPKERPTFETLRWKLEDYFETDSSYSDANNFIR

Question: Which remaining activity at 0.3 µM (AKT3; [1]) does the source give for `COc1cc(N2CCN(C)CC2)c(C)cc1Nc1ncc(Br)c(Nc2cccnc2N(C)C)n1` [TP-5801] here?
Answer: 105%

Question: And the remaining activity at 0.3 µM (AKT3; [2])?
Answer: 98.7%

Question: What about the remaining activity at 0.3 µM (CAMKK2; [1]) of the same molecule?
Answer: 31.9%

Question: And the remaining activity at 0.3 µM (CAMKK2; [2])?
Answer: 30.2%

Question: And the remaining activity at 0.3 µM (CDC7/DBF4; [1])?
Answer: 124%

Question: And the remaining activity at 0.3 µM (CDC7/DBF4; [2])?
Answer: 123%

Question: And the remaining activity at 0.3 µM (FRK/PTK5; [1])?
Answer: 72%

Question: And the remaining activity at 0.3 µM (FRK/PTK5; [2])?
Answer: 71%

Question: What about the remaining activity at 0.3 µM (GRK2; [1]) of the same molecule?
Answer: 93%

Question: What about the remaining activity at 0.3 µM (GRK2; [2]) of the same molecule?
Answer: 91.7%

Question: What about the remaining activity at 0.3 µM (HIPK2; [1]) of the same molecule?
Answer: 106%

Question: What about the remaining activity at 0.3 µM (HIPK2; [2]) of the same molecule?
Answer: 96.6%

Question: And the remaining activity at 0.3 µM (MAPKAPK2; [1])?
Answer: 99%

Question: And the remaining activity at 0.3 µM (MAPKAPK2; [2])?
Answer: 96.4%

Question: And the remaining activity at 0.3 µM (MARK3; [1])?
Answer: 95.4%

Question: And the remaining activity at 0.3 µM (MARK3; [2])?
Answer: 91.7%

Question: What about the remaining activity at 0.3 µM (MNK2; [1]) of the same molecule?
Answer: 89.8%

Question: And the remaining activity at 0.3 µM (MNK2; [2])?
Answer: 89%

Question: And the remaining activity at 0.3 µM (MRCKb/CDC42BPB; [1])?
Answer: 99.2%

Question: And the remaining activity at 0.3 µM (MRCKb/CDC42BPB; [2])?
Answer: 98%

Question: What about the remaining activity at 0.3 µM (MYLK4; [1]) of the same molecule?
Answer: 108%

Question: What about the remaining activity at 0.3 µM (MYLK4; [2]) of the same molecule?
Answer: 96.9%

Question: And the remaining activity at 0.3 µM (PIM1; [1])?
Answer: 93.2%

Question: And the remaining activity at 0.3 µM (PIM1; [2])?
Answer: 92.8%

Question: What about the remaining activity at 0.3 µM (PKN1/PRK1; [1]) of the same molecule?
Answer: 91.8%

Question: And the remaining activity at 0.3 µM (PKN1/PRK1; [2])?
Answer: 90.3%

Question: What about the remaining activity at 0.3 µM (PRKX; [1]) of the same molecule?
Answer: 93.7%

Question: And the remaining activity at 0.3 µM (PRKX; [2])?
Answer: 92.5%

Question: What about the remaining activity at 0.3 µM (RET; [1]) of the same molecule?
Answer: 83.2%

Question: What about the remaining activity at 0.3 µM (RET; [2]) of the same molecule?
Answer: 81.2%

Question: And the remaining activity at 0.3 µM (STK16; [1])?
Answer: 107%

Question: And the remaining activity at 0.3 µM (STK16; [2])?
Answer: 105%

Question: And the remaining activity at 0.3 µM (STK32B/YANK2; [1])?
Answer: 96.4%

Question: And the remaining activity at 0.3 µM (STK32B/YANK2; [2])?
Answer: 94.8%

Question: What about the remaining activity at 0.3 µM (TAOK1; [1]) of the same molecule?
Answer: 73.3%

Question: And the remaining activity at 0.3 µM (TAOK1; [2])?
Answer: 68.3%

Question: What about the remaining activity at 0.3 µM (TTBK2; [1]) of the same molecule?
Answer: 90.3%

Question: What about the remaining activity at 0.3 µM (TTBK2; [2]) of the same molecule?
Answer: 83.1%

Question: And the remaining activity at 0.3 µM (c-MET; [1])?
Answer: 104%

Question: What about the remaining activity at 0.3 µM (c-MET; [2]) of the same molecule?
Answer: 102%
